The data set has as its system CCRIS mutagenicity, Ames/micronucleus/aberration tests. Briefly: CCRIS mutagenicity studies.
[1] abbreviates: Test System: AMES SALMONELLA TYPHIMURIUM, Strain/Indicator: TA98, Metabolic Activation: HAMSTER, LIVER, S-9, AROCLOR 1254 (10%), Method: PREINCUBATION
Setting [2] is: Test System: AMES SALMONELLA TYPHIMURIUM, Strain/Indicator: TA98, Metabolic Activation: NONE, Method: PREINCUBATION
Setting [3] is: Test System: AMES SALMONELLA TYPHIMURIUM, Strain/Indicator: TA98, Metabolic Activation: RAT, LIVER, S-9, AROCLOR 1254 (10%), Method: PREINCUBATION
Setting [4] is: Test System: AMES SALMONELLA TYPHIMURIUM, Strain/Indicator: TA100, Metabolic Activation: HAMSTER, LIVER, S-9, AROCLOR 1254 (10%), Method: PREINCUBATION
The mark [5] stands for this setting: Test System: AMES SALMONELLA TYPHIMURIUM, Strain/Indicator: TA100, Metabolic Activation: NONE, Method: PREINCUBATION
Where [6] appears, read: Test System: AMES SALMONELLA TYPHIMURIUM, Strain/Indicator: TA1535, Metabolic Activation: HAMSTER, LIVER, S-9, AROCLOR 1254 (10%), Method: PREINCUBATION
Setting [7] is: Test System: AMES SALMONELLA TYPHIMURIUM, Strain/Indicator: TA1535, Metabolic Activation: NONE, Method: PREINCUBATION
The mark [8] stands for this setting: Test System: AMES SALMONELLA TYPHIMURIUM, Strain/Indicator: TA1537, Metabolic Activation: HAMSTER, LIVER, S-9, AROCLOR 1254 (10%), Method: PREINCUBATION
Setting [9] is: Test System: AMES SALMONELLA TYPHIMURIUM, Strain/Indicator: TA1537, Metabolic Activation: NONE, Method: PREINCUBATION
Setting [10] is: Test System: AMES SALMONELLA TYPHIMURIUM, Strain/Indicator: TA98, Metabolic Activation: NONE, Method: STANDARD PLATE.
The mark [11] stands for this setting: Test System: AMES SALMONELLA TYPHIMURIUM, Strain/Indicator: TA100, Metabolic Activation: NONE, Method: STANDARD PLATE.

Calls of active or inactive are those of the source. No rule for the calls is given here.

Turning to `C=C(C)C#N`, the mutagenic call was “inactive; negative” (Test System: AMES SALMONELLA TYPHIMURIUM, Strain/Indicator: TA97, Metabolic Activation: HAMSTER, LIVER, S-9, AROCLOR 1254 (10%), Method: PREINCUBATION); “inactive; negative” (Test System: AMES SALMONELLA TYPHIMURIUM, Strain/Indicator: TA97, Metabolic Activation: HAMSTER, LIVER, S-9, AROCLOR 1254 (30%), Method: PREINCUBATION); “inactive; negative” (Test System: AMES SALMONELLA TYPHIMURIUM, Strain/Indicator: TA97, Metabolic Activation: NONE, Method: PREINCUBATION); “inactive; negative” (Test System: AMES SALMONELLA TYPHIMURIUM, Strain/Indicator: TA97, Metabolic Activation: RAT, LIVER, S-9, AROCLOR 1254 (10 OR 30%), Method: PREINCUBATION); “inactive; negative” under setting [1]; “inactive; negative” (Test System: AMES SALMONELLA TYPHIMURIUM, Strain/Indicator: TA98, Metabolic Activation: HAMSTER, LIVER, S-9, AROCLOR 1254 (30%), Method: PREINCUBATION). In addition, the mutagenic call runs as follows: under setting [2], “inactive; negative”; under setting [3], “inactive; negative”; under setting [4], “inactive; negative”; (Test System: AMES SALMONELLA TYPHIMURIUM, Strain/Indicator: TA100, Metabolic Activation: HAMSTER, LIVER, S-9, AROCLOR 1254 (30%), Method: PREINCUBATION) “inactive; negative”; under setting [5], “inactive; negative”; (Test System: AMES SALMONELLA TYPHIMURIUM, Strain/Indicator: TA100, Metabolic Activation: RAT, LIVER, S-9, AROCLOR 1254 (10 OR 30%), Method: PREINCUBATION) “inactive; negative”. The mutagenic call under setting [6] was “inactive; negative”; the mutagenic call (Test System: AMES SALMONELLA TYPHIMURIUM, Strain/Indicator: TA1535, Metabolic Activation: HAMSTER, LIVER, S-9, AROCLOR 1254 (30%), Method: PREINCUBATION) was “inactive; negative”; the mutagenic call under setting [7] was “inactive; negative”; the mutagenic call (Test System: AMES SALMONELLA TYPHIMURIUM, Strain/Indicator: TA1535, Metabolic Activation: RAT, LIVER, S-9, AROCLOR 1254 (10 OR 30%), Method: PREINCUBATION) was “inactive; negative”; the mutagenic call under setting [8] was “inactive; negative”; the mutagenic call (Test System: AMES SALMONELLA TYPHIMURIUM, Strain/Indicator: TA1537, Metabolic Activation: HAMSTER, LIVER, S-9, AROCLOR 1254 (30%), Method: PREINCUBATION) is “inactive; negative”. The mutagenic call is “inactive; negative” under setting [9]; “inactive; negative” (Test System: AMES SALMONELLA TYPHIMURIUM, Strain/Indicator: TA1537, Metabolic Activation: RAT, LIVER, S-9, AROCLOR 1254 (10 OR 30%), Method: PREINCUBATION); “active; positive” (Test System: UDS HUMAN HEPATOMA HEPG2 CELLS, Strain/Indicator: THY INCORP, Metabolic Activation: NONE, Method: LIQUID SCINTILLATION COUNTING).

With `CCCCN(COC(C)=O)N=O`, the mutagenic call (Test System: UDS RAT UROTHELIAL CELLS, Strain/Indicator: THY INCORP, Metabolic Activation: NONE) is “active; positive”.

`O=c1c2cccc3ccc4cccc1c4c32`: the mutagenic call (Test System: AMES SALMONELLA TYPHIMURIUM, Strain/Indicator: TA100, Metabolic Activation: RAT, LIVER, S-9, AROCLOR 1254, Method: STANDARD PLATE) is “active; positive”.

For the molecule `O=Cc1ccccc1O`, the mutagenic call was “inactive; negative” under setting [10]; “inactive; negative” (Test System: AMES SALMONELLA TYPHIMURIUM, Strain/Indicator: TA98, Metabolic Activation: S-9, Method: STANDARD PLATE); “inactive; negative” under setting [11]; “inactive; negative” (Test System: AMES SALMONELLA TYPHIMURIUM, Strain/Indicator: TA100, Metabolic Activation: S-9, Method: STANDARD PLATE).

For `CCCNC(=O)NS(=O)(=O)c1ccc(Cl)cc1`, the mutagenic call is “inactive; negative” (End Point: IN VITRO CHROMOSOMAL ABERRATIONS, Test System: CHO CELLS, Metabolic Activation: NONE); “inactive; negative” (End Point: IN VITRO CHROMOSOMAL ABERRATIONS, Test System: CHO CELLS, Metabolic Activation: RAT, LIVER, S-9, AROCLOR 1254); “inactive; negative” under setting [1]; “inactive; negative” under setting [2]; “inactive; negative” under setting [3]; “inactive; negative” under setting [4]. The mutagenic call by setting is: under setting [5], “inactive; negative”; (Test System: AMES SALMONELLA TYPHIMURIUM, Strain/Indicator: TA100, Metabolic Activation: RAT, LIVER, S-9, AROCLOR 1254 (10%), Method: PREINCUBATION) “inactive; negative”; under setting [6], “inactive; negative”; under setting [7], “inactive; negative”; (Test System: AMES SALMONELLA TYPHIMURIUM, Strain/Indicator: TA1535, Metabolic Activation: RAT, LIVER, S-9, AROCLOR 1254 (10%), Method: PREINCUBATION) “inactive; negative”; under setting [8], “inactive; negative”. Moreover, the mutagenic call is, setting by setting: under setting [9], “inactive; negative”; (Test System: AMES SALMONELLA TYPHIMURIUM, Strain/Indicator: TA1537, Metabolic Activation: RAT, LIVER, S-9, AROCLOR 1254 (10%), Method: PREINCUBATION) “inactive; negative”; (Test System: MOUSE LYMPHOMA, Strain/Indicator: L5178Y (TK+/TK-), Metabolic Activation: NONE, Method: SUSPENSION/PLATE) “inactive; negative”; (Test System: MOUSE LYMPHOMA, Strain/Indicator: L5178Y (TK+/TK-), Metabolic Activation: RAT, LIVER, S-9, AROCLOR 1254, Method: SUSPENSION/PLATE) “inactive; negative”.

On to `CCc1cc(O)cc2c3c([nH]c12)C(CC)(CC(=O)O)OCC3` (stereo not drawn), for which the mutagenic call under setting [10] is “active; positive”; the mutagenic call (Test System: AMES SALMONELLA TYPHIMURIUM, Strain/Indicator: TA98, Metabolic Activation: RAT, LIVER, S-9 (10 OR 50 µL/PLATE), Method: STANDARD PLATE) is “inactive; negative”; the mutagenic call under setting [11] is “inactive; negative”; the mutagenic call (Test System: AMES SALMONELLA TYPHIMURIUM, Strain/Indicator: TA100, Metabolic Activation: RAT, LIVER, S-9 (10 OR 50 µL/PLATE), Method: STANDARD PLATE) was “inactive; negative”; the mutagenic call (Test System: AMES SALMONELLA TYPHIMURIUM, Strain/Indicator: TA1535, Metabolic Activation: NONE, Method: STANDARD PLATE) is “inactive; negative”; the mutagenic call (Test System: AMES SALMONELLA TYPHIMURIUM, Strain/Indicator: TA1535, Metabolic Activation: RAT, LIVER, S-9 (10 OR 50 µL/PLATE), Method: STANDARD PLATE) is “inactive; negative”. Also, the mutagenic call (Test System: AMES SALMONELLA TYPHIMURIUM, Strain/Indicator: TA1537, Metabolic Activation: NONE, Method: STANDARD PLATE) was “inactive; negative”; the mutagenic call (Test System: AMES SALMONELLA TYPHIMURIUM, Strain/Indicator: TA1537, Metabolic Activation: RAT, LIVER, S-9 (10 OR 50 µL/PLATE), Method: STANDARD PLATE) was “inactive; negative”; the mutagenic call (Test System: E. COLI, Strain/Indicator: WP2 UVRA, Metabolic Activation: NONE, Method: STANDARD PLATE) is “inactive; negative”; the mutagenic call (Test System: E. COLI, Strain/Indicator: WP2 UVRA, Metabolic Activation: RAT, LIVER, S-9 (10 OR 50 µL/PLATE), Method: STANDARD PLATE) is “inactive; negative”.

The values above are taken from PubChem BioAssay AID1259407 (Chemical Carcinogenesis Research Information System (CCRIS), 2018).
